# From the METLIN SMRT retention time set (Domingo-Almenara et al. 2019)
# Assay: gradient 5% acetonitrile 3 min, to 50% in 2 min, to 85% in 15 min, held 3 min, 100 µL/min
# Conditions: column: Zorbax Extend-C18 2.1 x 50 mm; eluents: water / acetonitrile, 0.1% formic acid
# How it was run: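 Each retention time is based on an adduct peak selected computationally and verified by manual inspection. Measurements used HPLC–quadrupole time-of-flight mass spectrometry in positive and negative ionization mode on mixtures of ~100 pure standards. Chromatography ran on a Zorbax Extend-C18 column (2.1 × 50 mm, 1.8 μm) at 100 μL/min with water and acetonitrile, each containing 0.1% formic acid, and dead and dwell volumes of 40 μL and 900 μL.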
row,SMILES,RP-LC retention time [s]
1,CCCCC(=O)N1CCN(C2CCN(CCOC)C2=O)CC1 (configuration not stated),535
2,CSc1ccc(CNC(=O)c2nnc(-c3ccc(S(=O)(=O)N(C)C)cc3)o2)cc1,889
3,CCC(CC)C(=O)N1CCCN(C2=NS(=O)(=O)C(c3ccc(F)cc3)=C2C)CC1,811
4,Cc1ccc(S(=O)(=O)NCc2c(-c3ccccc3)nc3sc(C)nn23)cc1,858
5,O=C(CC1CCCC1)N1CCCC(c2nc(-c3ccccc3)n[nH]2)C1 (configuration not stated),801
6,Brc1cccc(-c2nn3c(-c4ccccn4)nnc3s2)c1,860
7,O=C(C1CCCN(c2cnc3nccnc3c2)C1)N1CCC(N2CCCCC2)CC1 (configuration not stated),557
8,CN1CCN(CCCNC(=O)c2noc3c2CCCCC3)CC1,584
9,CCN1C(=O)CN(C(=O)C2CCCCC2)CC12CCOCC2,654
10,CCOC(=O)C1CCN(C(=O)C2CCCN(c3ccc(-c4ccc(C)c(C)c4)nn3)C2)CC1 (configuration not stated),761
11,COCCC(=O)N1CCCCC1c1nncn1Cc1ccccc1 (configuration not stated),643
12,Cn1nnc2ccc(-c3noc(-c4cc(F)ccc4Cl)n3)cc21,1060
13,O=C(NCc1ccc(F)cc1F)c1cc2n(n1)CCCC2,812
14,O=c1ccc(-c2ccccc2)nn1CCc1nc(-c2cccc(Br)c2)no1,1090
15,CCCn1c(-c2cccc(C(=O)N3CCC4(CC3)OCCO4)c2)nc2cccnc21,684
16,Cc1cc(C)c(CNS(=O)(=O)c2cc(-c3nc(C)c(C)s3)cs2)c(C)c1,1310
17,Cc1cc(C)nc(NS(=O)(=O)c2ccc(Nc3nc(-c4ccc(C)c(C)c4)cs3)cc2)n1,1020
18,COc1ccc(-c2nc(C)cc(C)c2CNS(=O)(=O)c2cccc(C#N)c2)cc1,640
19,Cc1ccc(NC(=O)Nc2ccc3nc(N4CCN(C)CC4)cc(C)c3c2)cc1C,614
20,O=C(NCCCN1CCCCCC1)C1CCCN(c2nc3cccnc3s2)C1 (configuration not stated),595

# Second part, the compound after the results:
row,RP-LC retention time [s],SMILES
1,578,COc1ccc2[nH]c(=O)c(CCC(=O)N(C)CCc3ccccn3)cc2c1
2,1100,CCCN1C(=O)c2cc(S(=O)(=O)Nc3ccc(F)cc3C)ccc2Oc2cccnc21
3,703,COc1ccc(C(=O)NC2CCN(c3cc(-c4cccs4)[nH]n3)C2)cc1 (configuration not stated)
4,711,CCn1c(=O)c(=O)n(CC(=O)NC(C)Cc2ccco2)c2cccnc21 (configuration not stated)
5,1130,O=C(COc1cccc(Br)c1)Nc1nc(-c2ccccc2)cs1
6,1040,COc1ccc(Cl)cc1NC(=O)Cn1cccc1-c1nnc(C2CCC2)o1
7,820,Cc1ccc2c(c1)C(=O)NC1(CCN(C(=O)Cc3ccccc3C)CC1)N2C
8,794,O=C(CCCn1nnc2ccccc2c1=O)Nc1ccc(F)c(Cl)c1
9,830,COC(=O)c1cc2c(=O)n(-c3ccccc3Cl)ccc2nc1C
10,942,Cc1ccc2nc3c(C(=O)NC4CC4)cccn3c(=O)c2c1
11,673,COC(=O)Nc1ccc2[nH]cc(CCNC(C)=O)c2c1
12,764,CCOCC(=O)Nc1ccc2c(c1)Sc1ncccc1C(=O)N2C(C)C
13,755,Cc1ccc(C(=O)CC2(O)C(=O)Nc3ccc(C)cc32)cc1 (configuration not stated)
14,639,COc1cc(NC(=O)N2CCCC(Cn3c(C)nc4cccnc43)C2)cc(OC)c1 (configuration not stated)
15,982,CCOc1ccc(NC(=O)C2CCCN(S(=O)(=O)c3cc(-c4noc(C)n4)cs3)C2)cc1 (configuration not stated)
16,664,COCCn1ccc2nc(C)c(C(=O)NCc3ccc4c(c3)OCO4)cc2c1=O
17,720,O=C(CC(=O)N1CCN(c2ccccc2)CC1)Nc1ccc2nc3n(c(=O)c2c1)CCCCC3
